# Where “and” joins values, the source holds several entries; their conditions need not be identical. Equal values may be shown once.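 Cells were grown in 96-well plates and exposed to each compound for 48 hours at five concentrations; endpoints were interpolated linearly between bracketing concentrations, or set to the highest concentration if not reached. GI50: concentration for 50% inhibition of growth. TGI marks complete inhibition of growth.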
# How the values were obtained:
# Experiment in all cases: DTP human tumour cell line panel, 48 h
# CAKI-1 renal = system: CAKI-1 renal
# COLO 205 colon = system: COLO 205 colon
# HOP-62 NSCLC = system: HOP-62 NSCLC
# HS 578T breast = system: HS 578T breast
# K-562 leukemia = system: K-562 leukemia
# MALME-3M melanoma = system: MALME-3M melanoma
# NCI-H460 lung = system: NCI-H460 lung
# PC-3 prostate = system: PC-3 prostate
# SW-620 colon = system: SW-620 colon
# T-47D breast = system: T-47D breast
SMILES,GI50 (CAKI-1 renal),TGI (CAKI-1 renal),GI50 (COLO 205 colon),TGI (COLO 205 colon),GI50 (HOP-62 NSCLC),TGI (HOP-62 NSCLC),GI50 (HS 578T breast),TGI (HS 578T breast),GI50 (K-562 leukemia),TGI (K-562 leukemia),GI50 (MALME-3M melanoma),TGI (MALME-3M melanoma),GI50 (NCI-H460 lung),TGI (NCI-H460 lung),GI50 (PC-3 prostate),TGI (PC-3 prostate),GI50 (SW-620 colon),TGI (SW-620 colon),GI50 (T-47D breast),TGI (T-47D breast)
Cc1ccc2c(C(C[N+](=O)[O-])c3ccccc3)c(-c3ccccc3)[nH]c2c1 (centres undefined),4.73 µM,> 95 µM,21.8 µM,> 95 µM,34.2 µM,> 95 µM,16.8 µM,94.3 µM,7.14 µM,> 95 µM,10.2 µM,> 95 µM,30.1 µM,> 95 µM,20.9 µM,> 95 µM,16.6 µM,> 95 µM,26.4 µM,> 95 µM
O=C1C2CCN(CC2)C1CN1CCOCC1 (centres undefined),,4.09 µM,,3.27 µM,,34 µM,,82.1 µM,,20.3 µM,,3.28 µM,,33.7 µM,,34.7 µM,,3.2 µM,,3.93 µM
O=C(O)Cc1cccc2c(=O)cc(-c3ccccc3)oc12,> 46.8 µM and 163 µM,> 72 µM and 194 µM and 420 µM,636 µM,> 1000 µM,,250 µM and > 1000 µM,415 µM,209 µM and 889 µM,148 µM,250 µM and > 844 µM,725 µM,> 1000 µM,545 µM,> 1000 µM,> 955 µM,> 1000 µM,313 µM,> 1000 µM,690 µM,> 1000 µM
COc1ccc2cc(-c3cnc4nonc4n3)ccc2c1,2.83 µM,> 100 µM,3.12 µM,> 100 µM,5.22 µM,64 µM,1.23 µM,> 100 µM,0.468 µM,> 100 µM,4.03 µM,> 100 µM,11 µM,> 100 µM,2.11 µM,> 100 µM,1.25 µM,> 100 µM,1.99 µM,> 100 µM
COc1ccc(-c2ncnc3c2ncn3CC#CCCl)cc1,1.47 µM,3.11 µM,3.51 µM,13.7 µM,1.79 µM,3.31 µM,3.8 µM,22.1 µM,8.06 µM,> 100 µM,2.58 µM,16 µM,3.27 µM,12.4 µM,6.82 µM,24.7 µM,2.99 µM,12.4 µM,2.89 µM,12.7 µM
COc1ccc(Br)cc1NC(=O)Nc1cccc2c1ccn2Cc1ccnc(N)c1,4.79 µM and 8.78 µM,21.5 µM and > 10 µM,6.48 µM and 4.48 µM,18.2 µM and > 10 µM,4.86 µM and > 10 µM,11.1 µM and > 10 µM,1.84 µM and 3.81 µM,16.2 µM and > 10 µM,2.41 µM and 2.75 µM,8.38 µM and > 10 µM,12.1 µM and > 10 µM,32 µM and > 10 µM,3.85 µM and 4.2 µM,15.1 µM and > 10 µM,4.52 µM and 4.5 µM,> 54.8 µM,2.85 µM and 6.72 µM,8.41 µM and > 10 µM,3.3 µM and 3.9 µM,18.4 µM and > 10 µM
COC[C@H](NC(=O)c1cnc(C)s1)C(=O)N[C@@H](COC)C(=O)N[C@@H](Cc1ccccc1)C(=O)[C@@]1(C)CO1,38.5 µM,> 100 µM,37.4 µM,> 100 µM,31.4 µM,> 95.4 µM,26.5 µM,> 100 µM,37.8 µM,> 100 µM,22 µM,64 µM,37.1 µM,> 100 µM,50.1 µM,> 100 µM,21.2 µM,> 100 µM,19.9 µM,> 71.2 µM
CCC(CC)n1cnc2c(-c3cnc(N)cn3)nc(N3CC4CCC(C3)O4)nc21,0.108 µM,1.73 µM,0.269 µM,> 83 µM,1.08 µM,> 100 µM,0.209 µM,1.61 µM,0.854 µM,> 100 µM,0.0472 µM,0.688 µM,0.17 µM,> 100 µM,0.104 µM,> 100 µM,0.76 µM,> 100 µM,0.0233 µM,0.217 µM
Cc1ccc(CNc2ccc3nc(CCC4CCCCC4)[nH]c3c2)cc1,2.67 µM,7.03 µM,1.88 µM,3.66 µM,2.08 µM,4.83 µM,2.16 µM,7.06 µM,2.1 µM,5.47 µM,1.74 µM,4.07 µM,2.99 µM,8.6 µM,2.39 µM,8.61 µM,1.99 µM,4.64 µM,2.56 µM,8.5 µM
O=C(c1c(F)c(F)c(F)c(F)c1F)c1c(F)c(F)c(F)c(F)c1F,,1.69 µM,,3.28 µM,,3.49 µM,,> 26.6 µM,,> 100 µM,,3.23 µM,,5.24 µM,,3.39 µM,,60.6 µM,,> 100 µM

# Source: PubChem BioAssay (NCI)
